EP0381656A1, “Alcohol-soluble/water-insoluble oil-containing antifreeze” (FIRST BRANDS CORPORATION, priority 1989, dated 1990)
Read-outs that look alike come from different tables or passages of the source.

Assays:
[1] = Contact angle of polypropylene glycol oil drop on surface-modified metal (Goniometer); assay type: physicochemical; conditions: 0.1 wt. percent surface modifier
Excerpt: The effectiveness of a surface modifier compound in modifying the metal surface to be treated with a alcohol-soluble/water-insoluble oil may be evaluated by first treating a metal surface with a selected surface modifier compound. A selected oil droplet is then placed on the modified metal surface and the contact angle measured using a Goniometer.
A series of contact angle measurements were made using for convenience, a polypropylene glycol having a molecular weight of about 1000 as the oil. The contact angle measurement is made by placing the drop of polypropylene glycol on an aluminum surface submerged in a solution having 0.1 wt. percent of a selected surface modifier compound in an aqueous working antifreeze solution having 67% weight percent water, a reserve alkalinity of 50, in borate buffered glycol and having a selected pH of approximately 8. The measured contact angles were as follows:
Several additional surface modifiers were evaluated according to the above procedure to determine their use in wetting the surface of one or more metals commonly employed in automotive cooling systems. The contact angles for aluminum (Al) cast iron (Fe), steel, brass, ASTM solder (ASTM), copper (Cu) and Modine solder (Modine) were measured according to the procedure of this Example 2 using the following surface modifiers: […]

[2] = as above; assay type: physicochemical
[3] = assay type: physicochemical
Method: The "alcohol-soluble/water-insoluble oil" (component (b)) is preferably characterized as having a minimum solubility in the selected alcohol of at least about 0.4 wt. % at 25°C at 1 atm pressure, preferably greater than 1.0 wt, % at 25°C at 1 atm pressure. The "alcohol-soluble/-water-insoluble oil" component is further characterized as being practically insoluble in a 50/50 (weight basis) mixture of the alcohol and water such that the alcohol-soluble/water-insoluble oil has a solubility in the alcohol/water mixture of less than about 0.25 wt. % at 25°C and a pressure of 1 atm, preferably less than about 0.05 at 25°C and a pressure of 1 atm. The solubility of the alcohol-soluble/water-insoluble oil in the alcohol or alcohol/water may be determined by equilibrating a concentration sequence of the oil in the alcohol under stirred conditions. After saturation for 2 hours at the specified temperature, any excess over saturation is estimated from the appearance of the solution. Insolubility is easily detected by visual observation. Formation of two distinctive phases or a turbid suspension indicates substantial insolubility. Turbidity and transmittance can be used to objectively determine if any insoluble material is present as a suspension. For example, when ethylene glycol (EG) or 1/1 mixture of EG/water are used for calibration, they both have a turbidity of 0.7 NTU (Nephelometric Turbidity Unit as measured with the HACH model 2100A turbidimeter) and 100% transmittance (or absorbance=0) measured with filtered light with 470nm wavelength using a Brinkmann PC/600 spectrophotometer. […] When 0.6% hexanol was added to the 1/1 EG/water solution, the turbidity […] to 1.9 NTU and the transmittance decreased to 98% (absorbance of 0.01). When 1% hexanol was added to 1/1 EG/water, the turbidity increased to 3 NTU and the transmittance decreased to 93% (absorbance of 0.03). […]

Molecule	CONTACT ANGLES (At 5 Minutes) Modine Solder ([2]; 0.1% surface modifier)	CONTACT ANGLES (At 5 Minutes) Modine Solder ([2]; 0.02% surface modifier)	CONTACT ANGLES (At 5 Minutes) Modine Solder ([2]; 0.05% surface modifier)	turbidity ([3]; 0.6% in 1/1 EG/water)	turbidity ([3]; 1% in 1/1 EG/water)	CONTACT ANGLES (At 5 Minutes) ASTM Solder [1]	CONTACT ANGLES (At 5 Minutes) Al [1]	CONTACT ANGLES (At 5 Minutes) Brass [1]	CONTACT ANGLES (At 5 Minutes) Cu [1]	CONTACT ANGLES (At 5 Minutes) Fe [1]	CONTACT ANGLES (At 5 Minutes) Steel [1]	turbidity and transmittance ([3]; below the solubility limit (5% in EG and 0.2% in 1/1 EG/water))
C₁₅hydroxyalkanesulfonate	120 °					150 °	145 °	57 °	58 °	108 °	160 °	
CCCCCCO [hexanol]				1.9 NTU	3 NTU							stayed essentially the same as that of the solvent
BUO(PO)₅C₃H₆5 Si (CH₃O)₃ [PO functional silane]	138 °					138 °	139 °	63 °	27 °	90 °	65 °	

More lines, main results first:

CONTACT ANGLES (At 5 Minutes) Modine Solder ([2]; 0.1% surface modifier)	CONTACT ANGLES (At 5 Minutes) Modine Solder ([2]; 0.02% surface modifier)	CONTACT ANGLES (At 5 Minutes) Modine Solder ([2]; 0.05% surface modifier)	turbidity ([3]; 0.6% in 1/1 EG/water)	turbidity ([3]; 1% in 1/1 EG/water)	Molecule	CONTACT ANGLES (At 5 Minutes) ASTM Solder [1]	CONTACT ANGLES (At 5 Minutes) Al [1]	CONTACT ANGLES (At 5 Minutes) Brass [1]	CONTACT ANGLES (At 5 Minutes) Cu [1]	CONTACT ANGLES (At 5 Minutes) Fe [1]	CONTACT ANGLES (At 5 Minutes) Steel [1]	turbidity and transmittance ([3]; below the solubility limit (5% in EG and 0.2% in 1/1 EG/water))
51 °	68 °	52 °			CCCCCCCC/C=C\CCCCCCCC(=O)O [oleic acid]							
		117 °			CCCCCCCCCCCC(=O)O [lauric acid]							
